How the values were obtained:
[1] = system: Spring Argentine canola (Brassica napus, BRSNS); assay: Example 3 field trials (Canada), postemergence crop safety, visual phytotoxicity
[2] = system: Aparima Gold swede (Brassica sp., BRSSS); assay: Example 2 field trials (Canterbury, New Zealand), postemergence crop safety, visual phytotoxicity

## COC(=O)c1nc(-c2ccc(Cl)c(OC)c2F)cc(N)c1Cl [Halauxifen-methyl, methyl 4-amino-3-chloro-6-(4-chloro-2-fluoro-3-methoxyphenyl)-2-pyridineccarboxylate]
[1]; Table 18, 8DAAA, halauxifen-methyl 5, clopyralid-olamine 150 g ae/ha, alone or mixed
  Mean % Visual Injury: 10%
[1]; Table 18, 14DAAA, halauxifen-methyl 5, clopyralid-olamine 150 g ae/ha, alone or mixed
  Mean % Visual Injury: 24%
[1]; Table 18, 40DAAA, halauxifen-methyl 5, clopyralid-olamine 150 g ae/ha, alone or mixed
  Mean % Visual Injury: 7%
[1]; Table 18, 81DAAA, halauxifen-methyl 5, clopyralid-olamine 150 g ae/ha, alone or mixed
  Mean % Visual Injury: 6%
[1]; Table 19, 8DAAA, halauxifen-methyl 5, clopyralid-olamine 150 g ae/ha alone, or both mixed with isoxadifen-ethyl 20 g ae/ha
  Mean % Visual Injury: 10%
[1]; Table 19, 14DAAA, halauxifen-methyl 5, clopyralid-olamine 150 g ae/ha alone, or both mixed with isoxadifen-ethyl 20 g ae/ha
  Mean % Visual Injury: 24%
[1]; Table 19, 40DAAA, halauxifen-methyl 5, clopyralid-olamine 150 g ae/ha alone, or both mixed with isoxadifen-ethyl 20 g ae/ha
  Mean % Visual Injury: 7%
[1]; Table 19, 81DAAA, halauxifen-methyl 5, clopyralid-olamine 150 g ae/ha alone, or both mixed with isoxadifen-ethyl 20 g ae/ha
  Mean % Visual Injury: 6%
[1]; Table 21, 8DAAA, halauxifen-methyl 5, quinclorac 101 g ae/ha, alone or mixed
  Mean % Visual Injury: 10%
[1]; Table 21, 14DAAA, halauxifen-methyl 5, quinclorac 101 g ae/ha, alone or mixed
  Mean % Visual Injury: 24%
[1]; Table 21, 40DAAA, halauxifen-methyl 5, quinclorac 101 g ae/ha, alone or mixed
  Mean % Visual Injury: 7%
[1]; Table 21, 81DAAA, halauxifen-methyl 5, quinclorac 101 g ae/ha, alone or mixed
  Mean % Visual Injury: 6%
[1]; Table 22, 8DAAA, halauxifen-methyl 5, clopyralid-olamine 150, quinclorac 101 g ae/ha, alone or mixed
  Mean % Visual Injury: 10%
[1]; Table 22, 14DAAA, halauxifen-methyl 5, clopyralid-olamine 150, quinclorac 101 g ae/ha, alone or mixed
  Mean % Visual Injury: 24%
[1]; Table 22, 40DAAA, halauxifen-methyl 5, clopyralid-olamine 150, quinclorac 101 g ae/ha, alone or mixed
  Mean % Visual Injury: 7%
[1]; Table 22, 81DAAA, halauxifen-methyl 5, clopyralid-olamine 150, quinclorac 101 g ae/ha, alone or mixed
  Mean % Visual Injury: 6%
[1]; Table 23, 7DAAA, halauxifen-methyl 5, clopyralid-olamine 150 g ae/ha, alone or mixed
  Mean % Visual Injury: 2.5%
[1]; Table 23, 17DAAA, halauxifen-methyl 5, clopyralid-olamine 150 g ae/ha, alone or mixed
  Mean % Visual Injury: 3.0%
[1]; Table 23, 49DAAA, halauxifen-methyl 5, clopyralid-olamine 150 g ae/ha, alone or mixed
  Mean % Visual Injury: 2.5%
[1]; Table 24, 7DAAA, halauxifen-methyl 5, clopyralid-olamine 150 g ae/ha alone, or both mixed with isoxadifen-ethyl 20 g ae/ha
  Mean % Visual Injury: 2.5%
[1]; Table 24, 17DAAA, halauxifen-methyl 5, clopyralid-olamine 150 g ae/ha alone, or both mixed with isoxadifen-ethyl 20 g ae/ha
  Mean % Visual Injury: 3.0%
[1]; Trial 1, 16DAA1, halauxifen-methyl 2.5, clopyralid-olamine 150 g ae/ha, alone or mixed
  Mean % Visual Growth Inhibition: 1.5%
[1]; Trial 1, 30DAA1, halauxifen-methyl 2.5, clopyralid-olamine 150 g ae/ha, alone or mixed
  Mean % Visual Growth Inhibition: 3.3%
[1]; Trial 1, 58DAA1, halauxifen-methyl 2.5, clopyralid-olamine 150 g ae/ha, alone or mixed
  Mean % Visual Growth Inhibition: 1.0%
[1]; Trial 2, 32DAA1, halauxifen-methyl 0.62, clopyralid-olamine 150 g ae/ha, alone or mixed
  Mean % Visual Growth Inhibition: 1.0%
[1]; Trial 2, 32DAA1, halauxifen-methyl 1.25, clopyralid-olamine 150 g ae/ha, alone or mixed
  Mean % Visual Growth Inhibition: 3.8%
[1]; Trial 2, 32DAA1, halauxifen-methyl 2.5, clopyralid-olamine 150 g ae/ha, alone or mixed
  Mean % Visual Growth Inhibition: 8.0%
[1]; Trial 2, 49DAA1, halauxifen-methyl 0.62, clopyralid-olamine 150 g ae/ha, alone or mixed
  Mean % Visual Growth Inhibition: 0.3%
[1]; Trial 2, 49DAA1, halauxifen-methyl 1.25, clopyralid-olamine 150 g ae/ha, alone or mixed
  Mean % Visual Growth Inhibition: 2.3%
[1]; Trial 2, 49DAA1, halauxifen-methyl 2.5, clopyralid-olamine 150 g ae/ha, alone or mixed
  Mean % Visual Growth Inhibition: 2.5%
[1]; Trial 3, 8DAA1, halauxifen-methyl 5, clopyralid-olamine 150 g ae/ha, alone or mixed, line r23
  Mean % Visual Growth Inhibition: 2.5%
[1]; Trial 3, 8DAA1, halauxifen-methyl 5, clopyralid-olamine 150 g ae/ha, alone or mixed, line r25
  Mean % Visual Growth Inhibition: 1.5%
[1]; Trial 3, 8DAA1, halauxifen-methyl 10, clopyralid-olamine 150 g ae/ha, alone or mixed, line r22
  Mean % Visual Growth Inhibition: 3.3%
[1]; Trial 3, 8DAA1, halauxifen-methyl 10, clopyralid-olamine 150 g ae/ha, alone or mixed, line r24
  Mean % Visual Growth Inhibition: 2.3%
[1]; Trial 3, 17DAA1, halauxifen-methyl 5, clopyralid-olamine 150 g ae/ha, alone or mixed, line r27
  Mean % Visual Growth Inhibition: 1.3%
[1]; Trial 3, 17DAA1, halauxifen-methyl 5, clopyralid-olamine 150 g ae/ha, alone or mixed, line r29
  Mean % Visual Growth Inhibition: 1.5%
[1]; Trial 3, 17DAA1, halauxifen-methyl 10, clopyralid-olamine 150 g ae/ha, alone or mixed, line r26
  Mean % Visual Growth Inhibition: 29.5%
[1]; Trial 3, 17DAA1, halauxifen-methyl 10, clopyralid-olamine 150 g ae/ha, alone or mixed, line r28
  Mean % Visual Growth Inhibition: 2.8%
[1]; Trial 3, 35DAA1, halauxifen-methyl 10, clopyralid-olamine 150 g ae/ha, alone or mixed
  Mean % Visual Growth Inhibition: 0.8%
[1]; Trial 3, 48DAA1, halauxifen-methyl 5, clopyralid-olamine 150 g ae/ha, alone or mixed, line r31
  Mean % Visual Growth Inhibition: 1.8%
[1]; Trial 3, 48DAA1, halauxifen-methyl 5, clopyralid-olamine 150 g ae/ha, alone or mixed, line r32
  Mean % Visual Growth Inhibition: 1.5%
[1]; Trial 4, 13DAA1, halauxifen-methyl 10, clopyralid-olamine 150 g ae/ha, alone or mixed, line r33
  Mean % Visual Growth Inhibition: 57.5%
[1]; Trial 4, 13DAA1, halauxifen-methyl 10, clopyralid-olamine 150 g ae/ha, alone or mixed, line r34
  Mean % Visual Growth Inhibition: 31.3%
[1]; Trial 5, 7DAA1, halauxifen-methyl 0.62, clopyralid-olamine 150 g ae/ha, alone or mixed
  Mean % Visual Growth Inhibition: 1.0%
[1]; Trial 5, 7DAA1, halauxifen-methyl 1.25, clopyralid-olamine 150 g ae/ha, alone or mixed
  Mean % Visual Growth Inhibition: 1.5%
[1]; Trial 5, 7DAA1, halauxifen-methyl 2.5, clopyralid-olamine 150 g ae/ha, alone or mixed
  Mean % Visual Growth Inhibition: 1.5%
[1]; Trial 5, 7DAA1, halauxifen-methyl 5, clopyralid-olamine 150 g ae/ha, alone or mixed
  Mean % Visual Growth Inhibition: 2.0%
[1]; Trial 6, 33DAA1, halauxifen-methyl 5, clopyralid-olamine 150 g ae/ha, alone or mixed
  Mean % Visual Growth Inhibition: 4.5%
[1]; Trial 7, 8DAA1, halauxifen-methyl 5, clopyralid-olamine 150 g ae/ha, alone or mixed
  Mean % Visual Growth Inhibition: 8.0%
[1]; Trial 7, 15DAA1, halauxifen-methyl 0.62, clopyralid-olamine 150 g ae/ha, alone or mixed
  Mean % Visual Growth Inhibition: 2.5%
[1]; Trial 7, 15DAA1, halauxifen-methyl 5, clopyralid-olamine 150 g ae/ha, alone or mixed
  Mean % Visual Growth Inhibition: 15.5%
[1]; Trial 8, 7DAA1, halauxifen-methyl 5, clopyralid-olamine 150 g ae/ha, alone or mixed
  Mean % Visual Growth Inhibition: 7.5%
[1]; Trial 8, 7DAA1, halauxifen-methyl 10, clopyralid-olamine 150 g ae/ha, alone or mixed, line r44
  Mean % Visual Growth Inhibition: 9.0%
[1]; Trial 8, 7DAA1, halauxifen-methyl 10, clopyralid-olamine 150 g ae/ha, alone or mixed, line r45
  Mean % Visual Growth Inhibition: 3.5%
[1]; Trial 8, 7DAA1, halauxifen-methyl 10, clopyralid-olamine 150 g ae/ha, alone or mixed, line r46
  Mean % Visual Growth Inhibition: 2.0%
[1]; Trial 8, 7DAA1, halauxifen-methyl 10, clopyralid-olamine 150 g ae/ha, alone or mixed, line r47
  Mean % Visual Growth Inhibition: 1.5%
[1]; Trial 8, 15DAA1, halauxifen-methyl 5, clopyralid-olamine 150 g ae/ha, alone or mixed
  Mean % Visual Growth Inhibition: 20.0%
[1]; Trial 8, 15DAA1, halauxifen-methyl 10, clopyralid-olamine 150 g ae/ha, alone or mixed, line r49
  Mean % Visual Growth Inhibition: 6.0%
[1]; Trial 8, 15DAA1, halauxifen-methyl 10, clopyralid-olamine 150 g ae/ha, alone or mixed, line r50
  Mean % Visual Growth Inhibition: 2.0%
[1]; Trial 9, 23DAA1, halauxifen-methyl 2.5, clopyralid-olamine 150 g ae/ha, alone or mixed
  Mean % Visual Growth Inhibition: 35.0%
[1]; Trial 9, 23DAA1, halauxifen-methyl 5, clopyralid-olamine 150 g ae/ha, alone or mixed
  Mean % Visual Growth Inhibition: 50.0%
[1]; Trial 9, 33DAA1, halauxifen-methyl 5, clopyralid-olamine 150 g ae/ha, alone or mixed
  Mean % Visual Growth Inhibition: 25.0%
[1]; Trial 9, 59DAA1, halauxifen-methyl 5, clopyralid-olamine 150 g ae/ha, alone or mixed
  Mean % Visual Growth Inhibition: 6.3%
[1]; Trial 10, 17DAA1, halauxifen-methyl 5, clopyralid-olamine 100 g ae/ha, alone or mixed
  Mean % Visual Growth Inhibition: 46.7%
[1]; Trial 10, 17DAA1, halauxifen-methyl 5, clopyralid-olamine 150 g ae/ha, alone or mixed
  Mean % Visual Growth Inhibition: 46.7%
[1]; Trial 10, 17DAA1, halauxifen-methyl 5, clopyralid-olamine 200 g ae/ha, alone or mixed
  Mean % Visual Growth Inhibition: 46.7%
[1]; Trial 10, 27DAA1, halauxifen-methyl 5, clopyralid-olamine 150 g ae/ha, alone or mixed
  Mean % Visual Growth Inhibition: 16.7%
[1]; Trial 10, 27DAA1, halauxifen-methyl 5, clopyralid-olamine 200 g ae/ha, alone or mixed
  Mean % Visual Growth Inhibition: 16.7%
[1]; Trial 11, 7DAA1, halauxifen-methyl 5, clopyralid-olamine 150 g ae/ha, alone or mixed
  Mean % Visual Growth Inhibition: 1.3%
[1]; Trial 11, 15DAA1, halauxifen-methyl 0.62, clopyralid-olamine 150 g ae/ha, alone or mixed
  Mean % Visual Growth Inhibition: 2.0%
[1]; Trial 11, 15DAA1, halauxifen-methyl 1.25, clopyralid-olamine 150 g ae/ha, alone or mixed
  Mean % Visual Growth Inhibition: 6.5%
[1]; Trial 12, 15DAA1, halauxifen-methyl 10, clopyralid-olamine 150 g ae/ha, alone or mixed
  Mean % Visual Growth Inhibition: 25.0%
[1]; Trial 12, 27DAA1, halauxifen-methyl 5, clopyralid-olamine 150 g ae/ha, alone or mixed
  Mean % Visual Growth Inhibition: 5.8%
[2]; 22DAA1, 7.5 g ae/ha
  Mean % Visual Growth Inhibition: 25.0%
  Mean % Visual Injury: 32.5%
[2]; 28DAA1, 3.75 g ae/ha
  Mean % Visual Growth Inhibition: 15.0%
  Mean % Visual Injury: 10.0%
[2]; 28DAA1, 7.5 g ae/ha
  Mean % Visual Growth Inhibition: 22.5%
  Mean % Visual Injury: 27.5%
[2]; 56DAA1, 7.5 g ae/ha
  Mean % Visual Growth Inhibition: 23.8%

— patent publication US20170354148A1, “SAFENED HERBICIDAL COMPOSITIONS CONTAINING HALAUXIFEN AND METHODS OF USE THEREOF IN BRASSICA SPECIES” (Dow AgroSciences LLC, priority 2016, published 2017)
